# Experimental data as given in US8445492B2, “Method for inhibiting growth of cancer cells and cell telomere and diseases of cell proliferation by using heteroannelated anthraquinone derivative compounds” (National Defense Medical Center, priority 2008, dated 2013).
# How the values were obtained:
# Assay in all cases: NCI DTP in-vitro dose response, Colon Cancer
# Type in all cases: cell-based
# HCT-116 = system: HCT-116
# HCC-2998 = system: HCC-2998
# HT29 = system: HT29
# COLO 205 = system: COLO 205
# SW-620 = system: SW-620
# HCT-15 = system: HCT-15
# KM12 = system: KM12
structure (smiles),measurement,setting,value
CCc1nc2ccc3c(c2[nH]1)C(=O)c1ccccc1C3=O [TABLE 4-3],CC50,HCT-116,> 100 µM
same,TGI,HCT-116,>1.00E−4
same,Percent Growth,HCT-116; Log10 Concentration −4.0,11%
same,Percent Growth,HCT-116; Log10 Concentration −5.0,42%
same,Percent Growth,HCT-116; Log10 Concentration −6.0,78%
same,Percent Growth,HCT-116; Log10 Concentration −7.0,95%
same,Percent Growth,HCT-116; Log10 Concentration −8.0,92%
same,GI50,HCT-116; read-out: GI50,6.1 µM
same,CC50,HCC-2998,> 100 µM
same,TGI,HCC-2998,>1.00E−4
same,Percent Growth,HCC-2998; Log10 Concentration −4.0,22%
same,Percent Growth,HCC-2998; Log10 Concentration −5.0,59%
same,Percent Growth,HCC-2998; Log10 Concentration −6.0,90%
same,Percent Growth,HCC-2998; Log10 Concentration −7.0,94%
same,Percent Growth,HCC-2998; Log10 Concentration −8.0,88%
same,GI50,HCC-2998; read-out: GI50,17.4 µM
same,CC50,HT29,> 100 µM
same,TGI,HT29,>1.00E−4
same,Percent Growth,HT29; Log10 Concentration −4.0,11%
same,Percent Growth,HT29; Log10 Concentration −5.0,48%
same,Percent Growth,HT29; Log10 Concentration −6.0,88%
same,Percent Growth,HT29; Log10 Concentration −7.0,100%
same,Percent Growth,HT29; Log10 Concentration −8.0,94%
same,GI50,HT29; read-out: GI50,8.84 µM
same,CC50,COLO 205,> 100 µM
same,TGI,COLO 205,>1.00E−4
same,Percent Growth,COLO 205; Log10 Concentration −4.0,9%
same,Percent Growth,COLO 205; Log10 Concentration −5.0,41%
same,Percent Growth,COLO 205; Log10 Concentration −6.0,85%
same,Percent Growth,COLO 205; Log10 Concentration −7.0,93%
same,Percent Growth,COLO 205; Log10 Concentration −8.0,93%
same,GI50,COLO 205; read-out: GI50,6.36 µM
same,CC50,SW-620,> 100 µM
same,TGI,SW-620,>1.00E−4
same,Percent Growth,SW-620; Log10 Concentration −4.0,6%
same,Percent Growth,SW-620; Log10 Concentration −5.0,39%
same,Percent Growth,SW-620; Log10 Concentration −6.0,89%
same,Percent Growth,SW-620; Log10 Concentration −7.0,96%
same,Percent Growth,SW-620; Log10 Concentration −8.0,99%
same,GI50,SW-620; read-out: GI50,5.97 µM
same,CC50,HCT-15,> 100 µM
same,TGI,HCT-15,>1.00E−4
same,Percent Growth,HCT-15; Log10 Concentration −4.0,8%
same,Percent Growth,HCT-15; Log10 Concentration −5.0,27%
same,Percent Growth,HCT-15; Log10 Concentration −6.0,69%
same,Percent Growth,HCT-15; Log10 Concentration −7.0,93%
same,Percent Growth,HCT-15; Log10 Concentration −8.0,90%
same,GI50,HCT-15; read-out: GI50,2.82 µM
same,CC50,KM12,> 100 µM
same,TGI,KM12,>1.00E−4
same,Percent Growth,KM12; Log10 Concentration −4.0,13%
same,Percent Growth,KM12; Log10 Concentration −5.0,43%
same,Percent Growth,KM12; Log10 Concentration −6.0,89%
same,Percent Growth,KM12; Log10 Concentration −7.0,94%
same,Percent Growth,KM12; Log10 Concentration −8.0,98%
same,GI50,KM12; read-out: GI50,7.15 µM
